Key:
Xantomonas malvacearum = test: Bacterial growth inhibition; format: cell-based; settings: concentration not given
[1] = Storage stability (descriptive); format: physicochemical
[2] = Acute toxicity (LD50) in mice; format: in vivo, weißen Mäusen; settings: mouse, in vivo, ip; intraabdominale Applikation an weißen Mäusen; read-out: LD50
Fusarium sambucinum = test: Mycelial growth inhibition on agar (contact activity); format: cell-based; settings: concentration not given
Description: (§1) Die Prüfungen werden nach dem Verfahren zur Ermittlung der Kontaktaktivität durchgeführt. Man verwendet das in Wasser gelöste Kalium-N-(vinyloxyäthyl)dithiocarbamat, führt es in ein Nährmedium ein und vergießt auf Petri-Schalen. Nach 24 Stunden wird mit Pilzmyzelium nach einem Stichverfahren geimpft. Dann temperiert man die Schalen innerhalb von 5 Tagen bei einer zwischen 24 und 26 °C liegenden Temperatur und mißt den Durchmesser von Pilzkolonien, ermittelt den Prozentsatz der Hemmung des Myzelwachstums (S) ausgehend von Angaben am 5. Tag nach der Abbott-Formel [drawing 13] worin dc für den Durchmesser der Pilzkolonien, de für den Durchmesser von Pilzkolonien in der Schale stehen, wo ein die zu prüfenden Stoffe enthaltendes Medium vorhanden ist. Dieses Verfahren zur Ermittlung der mikrobiologischen Aktivität ist in anderen Beispielen verwendet.
(§2) Tabelle 2 zeigt die Angaben für die fungizide Aktivität von Kalium-N-(vinyloxyäthyl)dithiocarbamat und bekannten wirksamen Fungiziden Poly arbazin und TMTD. Der zu prüfende Stoff wurde im Laufe der Versuche in Wasser aufgelöst, und die Kulturen wurden auf einem Kartoffel-Glukose-Nährmedium gezüchtet.

Fusarium moniliforme = test: as above; format: cell-based; settings: concentration not given
Description: as §1, §2

Sphaeropsis malorum = test: as above; format: cell-based; settings: concentration not given
Description: as §1
(§3) Als Nährmedium dient Würzeagar.

Psoroptes cuniculi = test: Acaricidal activity on isolated mites; format: in vivo
Description: Die akarizide Aktivität der Stoffe wird an isolierten Milben Psoroptes cuniculi als Erreger der Psoroptesräude bei Kaninchen geprüft. Von frischen Verkrustungen von Kaninchen mit Psoroptesräude, werden zu diesem Zweck 50 Milbenexemplare (Larven, Nymphen, Imago) gewählt und in Petri-Schalen auf ein Filterpapierblatt übertragen. Dann bringt man auf Milben und die ganze Blattoberfläche 1,5 ml zu prüfende wäßrige Stofflösung in destilliertem Wasser auf. Die Schale wird mit Deckel verschlossen und in einen Thermostat bei 30 °C und Feuchtegehalt von 90 % angeordnet. Der Wirkstoff wird als wäßrige Lösung mit einer zwischen 0,0039 und 4 % liegenden Konzentration genommen. Als Vergleichsmuster dient gleichzeitig eine wäßrige Lösung von Chlorophos. Milben werden im Kontrollversuch (Kontrolle auf Lebensfähigkeit)mit 1,5 ml physiologischer Lösung behandelt und in einen anderen Thermostat unter gleichen Temperatur- und Feuchtigkeitsbedingungen aufgestellt.
Nach 1, 2, 4, 6 Stunden und alle 24 Stunden betrachtet man die Milben im Mikroskop und zählt die toten Milben. Aufgrund der Milbenvernichtung durch einen 24-stündigen Kontakt mit dem Wirkstoff ermittelt man die LK-50 Werte. Die Versuche werden 5mal wiederholt. Arithmetische Mittelwerte gibt Tabelle 14 an.

Rhizoctonia solani = test: Mycelial growth inhibition on agar (contact activity); format: cell-based; settings: concentration not given
Description: as §1
Die fungizide Aktivität von Zink-bis-(N-vinyloxyäthyldithiocarbamat) gegen reine Kulturen von Pilzen Fusarium moniliforme, Fusarium sambucinum, Aspergillus niger, Rhizoctonia solani, Cladosporium resinae, Cladosporium cladosporioides, Acremonium cowum, Acremonium charticola, Penicillium chrysogenum, Penicillium charlesii Smith, Penicillium funiculosum, Geotrichum candidum Link, Walrotiela subiculesa, Oidium sp., Paecilomyces varioti, Stereum hirsutum wird gemäß Beispiel 8 untersucht.
as §3

[3] = Solubility in water (descriptive); format: physicochemical
Aspergillus niger = test: Mycelial growth inhibition on agar (contact activity); format: cell-based; settings: concentration not given
Geotrichum candidum Link = test: as above; format: cell-based; settings: Würzeagar
Description: as §1
(§4) Die Pilzkulturen werden auf Würzeagar gezüchtet. Ergebnisse, erhalten bei der Prüfung der fungiziden Aktivität gegen reine Kulturen von Mikroorganismen, welche Bioschädigungen hervorrufen, sind in der Tabelle 1 dargestellt.

Penicillium chrysogenum = test: as above; format: cell-based; settings: Würzeagar
Description: as §1, §4

Cladosporium resinae = test: as above; format: cell-based; settings: Würzeagar
Description: as §1, §4

Acremonium charticola = test: as above; format: cell-based; settings: Würzeagar
Description: as §1, §4

Penicillium charlesii = test: as above; format: cell-based; settings: Würzeagar
Description: as §1, §4

[4] = system: Cladosporium cladosporioides; test: as above; format: cell-based; settings: Würzeagar
Description: as §1, §4

Oidium Sp. = test: as above; format: cell-based; settings: Würzeagar
Description: as §1, §4

Walrotiela subiculesa = test: as above; format: cell-based; settings: Würzeagar
Description: as §1, §4

Acremonium cowum = test: as above; format: cell-based; settings: Würzeagar
Description: as §1, §4

C=COCCNC(=S)S [Natrium-N-(vinyloxyäthyl)dithiocarbamat]
unterdrückt das Wachstum von Bakterien (Xantomonas malvacearum): 33%
Lagerbeständigkeit [1]: lagerbeständig
LD50 [2]: 260 mg/kg
unterdrückt das Wachstum des Myzeliums der Pilze (Fusarium sambucinum): 100%
unterdrückt das Wachstum des Myzeliums der Pilze (Fusarium moniliforme): 100%
unterdrückt das Wachstum des Myzeliums der Pilze (Sphaeropsis malorum): 100%
LK-50 % (Psoroptes cuniculi; 24-stündiger Kontakt mit dem Wirkstoff): 0,0022%
Vernichtung von 100 % der Milben nach Stunden (Psoroptes cuniculi; Konzentration 0,0039 %): 48 Stunden
Vernichtung von 100 % der Milben nach Stunden (Psoroptes cuniculi; Konzentration 0,0078 %): 24 Stunden
Vernichtung von 100 % der Milben nach Stunden (Psoroptes cuniculi; Konzentration 0,0625 bis 0,125 %): 6 Stunden
Vernichtung von 100 % der Milben nach Stunden (Psoroptes cuniculi; Konzentration 0,125 bis 0,5 %): 4 Stunden
selektive Toxizität gegen Räudemilben, dem Chlorophos überlegen (Psoroptes cuniculi; gegenüber Chlorophos): ~400 mal
unterdrückt das Wachstum des Myzeliums der Pilze (Rhizoctonia solani): 100%
Löslichkeit in Wasser [3]: gut
unterdrückt das Wachstum des Myzeliums der Pilze (Aspergillus niger): 100%
Myzelhemmung in % (Geotrichum candidum Link; Präparatkonzentration 0,0015 %): 5%
Myzelhemmung in % (Geotrichum candidum Link; Präparatkonzentration 0,003 %): 40%
Myzelhemmung in % (Geotrichum candidum Link; Präparatkonzentration 0,006 %): 75%
Myzelhemmung in % (Geotrichum candidum Link; Präparatkonzentration 0,012 %): 100%
Myzelhemmung in % (Penicillium chrysogenum; Präparatkonzentration 0,0015 %): 5%
Myzelhemmung in % (Penicillium chrysogenum; Präparatkonzentration 0,003 %): 20%
Myzelhemmung in % (Penicillium chrysogenum; Präparatkonzentration 0,006 %): 80%
Myzelhemmung in % (Penicillium chrysogenum; Präparatkonzentration 0,012 %): 100%
Myzelhemmung in % (Cladosporium resinae; Präparatkonzentration 0,0015 %): 90%
Myzelhemmung in % (Cladosporium resinae; Präparatkonzentration 0,003 %): 100%
Myzelhemmung in % (Cladosporium resinae; Präparatkonzentration 0,006 %): 100%
Myzelhemmung in % (Cladosporium resinae; Präparatkonzentration 0,012 %): 100%
Myzelhemmung in % (Acremonium charticola; Präparatkonzentration 0,0015 %): 100%
Myzelhemmung in % (Acremonium charticola; Präparatkonzentration 0,003 %): 100%
Myzelhemmung in % (Acremonium charticola; Präparatkonzentration 0,006 %): 100%
Myzelhemmung in % (Acremonium charticola; Präparatkonzentration 0,012 %): 100%
Myzelhemmung in % (Penicillium charlesii; Präparatkonzentration 0,0015 %): 25%
Myzelhemmung in % (Penicillium charlesii; Präparatkonzentration 0,003 %): 40%
Myzelhemmung in % (Penicillium charlesii; Präparatkonzentration 0,006 %): 90%
Myzelhemmung in % (Penicillium charlesii; Präparatkonzentration 0,012 %): 100%
Myzelhemmung in % ([4]; Präparatkonzentration 0,0015 %): 100%
Myzelhemmung in % ([4]; Präparatkonzentration 0,003 %): 100%
Myzelhemmung in % ([4]; Präparatkonzentration 0,006 %): 100%
Myzelhemmung in % ([4]; Präparatkonzentration 0,012 %): 100%
Myzelhemmung in % (Oidium Sp.; Präparatkonzentration 0,0015 %): 60%
Myzelhemmung in % (Oidium Sp.; Präparatkonzentration 0,003 %): 100%
Myzelhemmung in % (Oidium Sp.; Präparatkonzentration 0,006 %): 100%
Myzelhemmung in % (Oidium Sp.; Präparatkonzentration 0,012 %): 100%
Myzelhemmung in % (Walrotiela subiculesa; Präparatkonzentration 0,0015 %): 100%
Myzelhemmung in % (Walrotiela subiculesa; Präparatkonzentration 0,003 %): 100%
Myzelhemmung in % (Walrotiela subiculesa; Präparatkonzentration 0,006 %): 100%
Myzelhemmung in % (Walrotiela subiculesa; Präparatkonzentration 0,012 %): 100%
Myzelhemmung in % (Acremonium cowum; Präparatkonzentration 0,0015 %): 100%
Myzelhemmung in % (Acremonium cowum; Präparatkonzentration 0,003 %): 100%
Myzelhemmung in % (Acremonium cowum; Präparatkonzentration 0,006 %): 100%
Myzelhemmung in % (Acremonium cowum; Präparatkonzentration 0,012 %): 100%

— patent EP0252983B1, “SALTS OF N-(VINYLOXIETHYL)DITHIOCARBAMIC ACID, METHOD OF OBTAINING THEREOF AND […] ON THEM” (priority 1985, dated 1987)
